Source: US20220167618A1, “PESTICIDALLY ACTIVE AZOLE-AMIDE COMPOUNDS” (SYNGENTA CROP PROTECTION AG, priority 2019, published 2022)

Columns and labels:
Type in all cases: in vivo
[1] = system: Diabrotica balteata (Corn Root Worm); assay: Example B1: Diabrotica balteata (corn root worm), sprayed maize sprouts; details: 96 h, application rate 200 ppm, L2 larvae, 4 days after infestation, read-out: control in at least one of the two categories (mortality or growth inhibition)
Procedure: Example B1: Diabrotica balteata (Corn Root Worm)
Maize sprouts placed onto an agar layer in 24-well microtiter plates were treated with aqueous test solutions prepared from 10′000 ppm DMSO stock solutions by spraying. After drying, the plates were infested with L2 larvae (6 to 10 per well). The samples were assessed for mortality and growth inhibition in comparison to untreated samples 4 days after infestation.

[2] = system: Chilo suppressalis (Striped Rice Stemborer); assay: Example B4: Chilo suppressalis (striped rice stemborer), artificial diet; details: 144 h, application rate 200 ppm, L2 larvae, 6 days after infestation, read-out: control in at least one of the three categories (mortality, anti-feedant or growth inhibition)
Procedure: Example B4: Chilo suppressalis (Striped Rice Stemborer)
24-well microtiter plates with artificial diet were treated with aqueous test solutions prepared from 10′000 ppm DMSO stock solutions by pipetting. After drying, the plates were infested with L2 larvae (6-8 per well). The samples were assessed for mortality, anti-feeding effect, and growth inhibition in comparison to untreated samples 6 days after infestation. Control of Chilo suppressalis by a test sample is given when at least one of the categories mortality, anti-feedant effect, and growth inhibition is higher than the untreated sample.

[3] = system: Plutella xylostella (Diamond Back Moth); assay: Example B5: Plutella xylostella (diamond back moth), artificial diet, 24-well; details: 192 h, application rate 200 ppm, eggs, 8 days after infestation, read-out: control in at least one of the two categories (mortality or growth inhibition)
Procedure: Example B5: Plutella xylostella (Diamond Back Moth)
24-well microtiter plates with artificial diet were treated with aqueous test solutions prepared from 10′000 ppm DMSO stock solutions by pipetting. After drying, Plutella eggs were pipetted through a plastic stencil onto a gel blotting paper and the plate was closed with it. The samples were assessed for mortality and growth inhibition in comparison to untreated samples 8 days after infestation.

[4] = system: Spodoptera littoralis (Egyptian Cotton Leaf Worm); assay: Example B9: Spodoptera littoralis (Egyptian cotton leaf worm), sprayed cotton leaf discs; details: foliar, 72 h, application rate 200 ppm, L1 larvae, 3 days after infestation, read-out: control in at least one of the three categories (mortality, anto-feedant or growth inhibition)

CC(NC(=O)c1cc(C(F)(F)F)cc(C(C)(C)C#N)c1)c1nc(Br)nn1-c1ncc(OCC(F)(F)F)cn1 (centres unmarked) [Compound P39, N-[1-[5-bromo-2-[5-(2,2,2-trifluoroethoxy)pyrimidin-2-yl]-1,2,4-triazol-3-yl]ethyl]-3-(1-cyano-1-methyl-ethyl)-5-(trifluoromethyl)benzamide]
≥ 80%: percent control (mortality or growth inhibition) at 200 ppm [1] | percent control (mortality, anti-feedant or growth inhibition) at 200 ppm [2] | percent control (mortality or growth inhibition) at 200 ppm [3] | percent control (mortality, anti-feedant or growth inhibition) at 200 ppm [4]

CC(NC(=O)c1cc(C(F)(F)F)cc(C(F)(F)C2CC2)c1)c1nc(Br)nn1-c1ncc(OCC(F)(F)F)cn1 (centres unmarked) [Compound P9, N-[1-[5-bromo-2-[5-(2,2,2-trifluoroethoxy)pyrimidin-2-yl]-1,2,4-triazol-3-yl]ethyl]-3-[cyclopropyl(difluoro)methyl]-5-(trifluoromethyl)benzamide]
≥ 80%: percent control (mortality, anti-feedant or growth inhibition) at 200 ppm [2] | percent control (mortality or growth inhibition) at 200 ppm [3] | percent control (mortality, anti-feedant or growth inhibition) at 200 ppm [4]

CC(NC(=O)c1cc(C(F)(F)F)cc(C(F)(F)C2CC2)c1)c1nc(Br)nn1-c1ccc(C#N)cn1 (centres unmarked) [Compound P21, N-[1-[5-bromo-2-(5-cyano-2-pyridyl)-1,2,4-triazol-3-yl]ethyl]-3-[cyclopropyl(difluoro)methyl]-5-(trifluoromethyl)benzamide]
≥ 80%: percent control (mortality or growth inhibition) at 200 ppm [1] | percent control (mortality, anti-feedant or growth inhibition) at 200 ppm [2] | percent control (mortality or growth inhibition) at 200 ppm [3] | percent control (mortality, anti-feedant or growth inhibition) at 200 ppm [4]

CC(NC(=O)c1cc(C2CC2)nc(C(F)(F)F)c1)c1nc(Br)nn1-c1ccc(C#N)cn1 (centres unmarked) [Compound P20, N-[1-[5-bromo-2-(5-cyano-2-pyridyl)-1,2,4-triazol-3-yl]ethyl]-2-cyclopropyl-6-(trifluoromethyl)pyridine-4-carboxamide]
≥ 80%: percent control (mortality or growth inhibition) at 200 ppm [1] | percent control (mortality, anti-feedant or growth inhibition) at 200 ppm [2] | percent control (mortality or growth inhibition) at 200 ppm [3] | percent control (mortality, anti-feedant or growth inhibition) at 200 ppm [4]

CC(NC(=O)c1cc(C(F)(F)F)cc(C2(C#N)CC2)c1)c1nc(Br)nn1-c1ncc(OCC(F)F)cn1 (centres unmarked) [Compound P3, N-[1-[5-bromo-2-[5-(2,2-difluoroethoxy)pyrimidin-2-yl]-1,2,4-triazol-3-yl]ethyl]-3-(1-cyanocyclopropyl)-5-(trifluoromethyl)benzamide]
≥ 80%: percent control (mortality or growth inhibition) at 200 ppm [1] | percent control (mortality, anti-feedant or growth inhibition) at 200 ppm [2] | percent control (mortality or growth inhibition) at 200 ppm [3] | percent control (mortality, anti-feedant or growth inhibition) at 200 ppm [4]

CC(NC(=O)c1cc(C(F)(F)F)nc(C2(C#N)CC2)c1)c1nc(Br)nn1-c1ccc(C#N)cn1 (centres unmarked) [Compound P2, N-[1-[5-bromo-2-(5-cyano-2-pyridyl)-1,2,4-triazol-3-yl]ethyl]-2-(1-cyanocyclopropyl)-6-(trifluoromethyl)pyridine-4-carboxamide]
≥ 80%: percent control (mortality or growth inhibition) at 200 ppm [1] | percent control (mortality, anti-feedant or growth inhibition) at 200 ppm [2] | percent control (mortality or growth inhibition) at 200 ppm [3] | percent control (mortality, anti-feedant or growth inhibition) at 200 ppm [4]

CC(NC(=O)c1cc(C(F)(F)F)cc(C2(C#N)CC2)c1)c1nc(Br)nn1-c1ccc(OCC(F)(F)F)cn1 (centres unmarked) [Compound P23, N-[1-[5-bromo-2-[5-(2,2,2-trifluoroethoxy)-2-pyridyl]-1,2,4-triazol-3-yl]ethyl]-3-(1-cyanocyclopropyl)-5-(trifluoromethyl)benzamide]
≥ 80%: percent control (mortality, anti-feedant or growth inhibition) at 200 ppm [2] | percent control (mortality or growth inhibition) at 200 ppm [3] | percent control (mortality, anti-feedant or growth inhibition) at 200 ppm [4]

CC(NC(=O)c1cc(C2CC2)cc(C(F)(F)F)c1)c1nc(Br)nn1-c1ccc(OCC(F)(F)F)cn1 (centres unmarked) [Compound P28, N-[1-[5-bromo-2-[5-(2,2,2-trifluoroethoxy)-2-pyridyl]-1,2,4-triazol-3-yl]ethyl]-3-cyclopropyl-5-(trifluoromethyl)benzamide]
≥ 80%: percent control (mortality, anti-feedant or growth inhibition) at 200 ppm [2] | percent control (mortality or growth inhibition) at 200 ppm [3]

CC(NC(=O)c1cc(C(F)(F)F)cc(C2(C#N)CC2)c1)c1nc(Br)nn1-c1ncc(OCC(F)(F)F)cn1 (centres unmarked) [Compound P10, N-[1-[5-bromo-2-[5-(2,2,2-trifluoroethoxy)pyrimidin-2-yl]-1,2,4-triazol-3-yl]ethyl]-3-(1-cyanocyclopropyl)-5-(trifluoromethyl)benzamide]
≥ 80%: percent control (mortality or growth inhibition) at 200 ppm [1] | percent control (mortality, anti-feedant or growth inhibition) at 200 ppm [2] | percent control (mortality or growth inhibition) at 200 ppm [3] | percent control (mortality, anti-feedant or growth inhibition) at 200 ppm [4]

CC(NC(=O)c1cc(C2CC2C(F)(F)F)cc(C(F)(F)F)c1)c1nc(Br)nn1-c1ccc(C#N)cn1 (centres unmarked) [Compound P16, N-[1-[5-bromo-2-(5-cyano-2-pyridyl)-1,2,4-triazol-3-yl]ethyl]-3-(trifluoromethyl)-5-[2-(trifluoromethyl)cyclopropyl]benzamide]
≥ 80%: percent control (mortality or growth inhibition) at 200 ppm [1] | percent control (mortality, anti-feedant or growth inhibition) at 200 ppm [2] | percent control (mortality or growth inhibition) at 200 ppm [3] | percent control (mortality, anti-feedant or growth inhibition) at 200 ppm [4]

CC(NC(=O)c1cc(C2CC2C(F)(F)F)cc(C(F)(F)F)c1)c1nc(Br)nn1-c1ncc(OCC(F)F)cn1 (centres unmarked) [Compound P13, N-[1-[5-bromo-2-[5-(2,2-difluoroethoxy)pyrimidin-2-yl]-1,2,4-triazol-3-yl]ethyl]-3-(trifluoromethyl)-5-[2-(trifluoromethyl)cyclopropyl]benzamide]
≥ 80%: percent control (mortality or growth inhibition) at 200 ppm [1] | percent control (mortality, anti-feedant or growth inhibition) at 200 ppm [2] | percent control (mortality or growth inhibition) at 200 ppm [3] | percent control (mortality, anti-feedant or growth inhibition) at 200 ppm [4]

CC(NC(=O)c1cc(C(F)(F)F)cc(C(C)(C)C#N)c1)c1nc(Br)nn1-c1ccc(OCC(F)(F)F)cn1 (centres unmarked) [Compound P41, N-[1-[5-bromo-2-[5-(2,2,2-trifluoroethoxy)-2-pyridyl]-1,2,4-triazol-3-yl]ethyl]-3-(1-cyano-1-methyl-ethyl)-5-(trifluoromethyl)benzamide]
≥ 80%: percent control (mortality, anti-feedant or growth inhibition) at 200 ppm [2] | percent control (mortality or growth inhibition) at 200 ppm [3]

CC(NC(=O)c1cc(C2CC2(F)F)cc(C(F)(F)F)c1)c1nc(Br)nn1-c1ccc(OCC(F)(F)F)cn1 (centres unmarked) [Compound P29, N-[1-[5-bromo-2-[5-(2,2,2-trifluoroethoxy)-2-pyridyl]-1,2,4-triazol-3-yl]ethyl]-3-(2,2-difluorocyclopropyl)-5-(trifluoromethyl)benzamide]
≥ 80%: percent control (mortality, anti-feedant or growth inhibition) at 200 ppm [2] | percent control (mortality or growth inhibition) at 200 ppm [3]
